Source: patent publication US20220040166A1, “Methods and Compositions of Treating an Ophthalmic Condition” (KARTOS THERAPEUTICS, priority 2018, published 2022)
Values after ≈ are worked out from the molar mass of the structure shown. Marks after values point to notes of the source that are not given here.

Key:
[1] = In vitro release of Comp-A from nanoparticles by dialysis against HBS (pH 7) at 37° C.; assay type: physicochemical; details: dialyzed against >1000X volume HBS (pH 7) at 37° C.
Method: • 5. Immediately following formulation, NPs were diluted to 4× volume in HBS. • 6. Pall 30 kDa MWCO centrifugal filters were used for solvent exchange to HBS and to concentrate formulations (2000×g, 21° C.). • 7. Particle size and polydispersity index (PDI) were analyzed using a Malvern Zetasizer (dynamic light scattering; DLS). […] Final formulations were sterile filtered through 0.22 μm syringe filters and stored at −80° C. in MrFrosty freezing containers. The following day formulations were moved to cryogenic freezer boxes for storage prior to shipping. • 9. A sample of each formulation was thawed to room temperature and dialyzed against >1000 volumes of 1×HBS (pH 7) at 37° C. for 6 hours. Samples were collected at 2 mins, 30 mins, 2 hours and 6 hours and analyzed for drug content by UPLC to determine particle release characteristics.

[2] = Tolerability of intravitreally administered solution of the compound of Formula (I)
Method: Based on expected solubility, a maximum feasible intravitreal dose of 44 μg of the compound of Formula (I) in 50 uL pH 7.85 aqueous buffer (sterile saline for injection, phosphate buffered saline or HEPES buffered saline) was administered to Dutch Belted rabbits.
Ophthalmoscopic examinations (slit lamp), ocular scoring, and intraocular pressure were observed through 5 days post-administration.

[3] = system: MDM2-amplified tumor cell line SJSA; experiment: Induction of p21 mRNA by Comp-A in SJSA cells; assay type: cell-based
[4] = 44 μg in 50 uL pH 7.85 aqueous buffer, intravitreal, rabbit

With `CC(C)[C@@H](CS(=O)(=O)C(C)C)N1C(=O)[C@@](C)(CC(=O)O)C[C@H](c2cccc(Cl)c2)[C@H]1c1ccc(Cl)cc1` [Comp-A, 2-((3R,5R,6S)-5-(3-chlorophenyl)-6-(4-chlorophenyl)-1-((S)-1-(isopropylsulfonyl)-3-methylbutan-2-yl)-3-methyl-2-oxopiperidin-3-yl) Acetic Acid] the “% Release after 2 h dialysis” value ([1]; 2 h) was under 1%, the “% Release after 6 h dialysis” value ([1]; 6 h) was 0* % and the “Changes in intra-ocular pressure” value [2, 4] was “no changes”. The “Ophthalmologic observations through 5 days” value [2, 4] was “no ophthalmologic observations”, the Tolerability ([2]; 22 microgram/eye in PBS (1×) and in HEPES buffered saline) was “no findings” and the Tolerability ([2]; 44 microgram/eye in PBS (1×) and in HEPES buffered saline) was “no findings”. It also gave an EC50 [3] of 0.0262 µg/mL (≈ 0.0461 µM).
